Test results taken from US20070123460A1, “Probiotic compounds from Lactobacillus GG and uses therefor” (THE UNIVERSITY OF CHICAGO, priority 2005, published 2007).

Test system: Hsp72
Test: Hsp72 induction in YAMC cells, Western blot
Assay type: cell-based, mouse
Conditions: inhibitor 2 hours before LGG-CM (15 minutes); harvest 4 hours later; SB203580 20 μM, SP600125 20 μM, PD98059 50 μM
Procedure: Prior to each study, cells were plated at a density of 2×10^5 per 60 mm tissue culture dish. For RNA preparation, cells were plated at a density of 7.5×10^5 cells per p100 mm dish. After 24 hours of growth at 33° C., the medium was replaced with IFN-free media and cells were moved to 37° C. (non-permissive conditions) for 24 hours to allow development of the differentiated colonocyte phenotype. […] Heat shock controls were heat-shocked at 42° C. for 23 minutes and then left at 37° C. for 2 hours before harvest.
Intestinal epithelial cells were treated with conditioned media from the probiotic LGG and then assayed for inducible heat shock protein expression. For Western blot analyses of expression, cells were washed twice and then scraped in ice-cold PBS (137 mM NaCl, 2.7 mM KCl, 8 mM Na2HPO4, pH 7.4). Cells were pelleted (14,000×g for 20 seconds at room temperature), then resuspended in ice-cold lysis buffer (10 mM Tris, pH 7.4, 5 mM MgCl2, 50 U/ml each of DNAse and RNAse, plus complete protease inhibitor cocktail (Roche Molecular Biochemicals, Indianapolis, Ind.)). Protein concentrations were determined using the bicinchoninic acid procedure (Smith et al., 1985). Samples were heated to 75° C. for 5 minutes after addition of 3× Laemmli Stop buffer, then stored at −80° C. until use.
Twenty micrograms of protein per lane were resolved on 12.5% SDS-PAGE. […]

SMILES: COc1cccc(-c2cc(=O)c3ccccc3o2)c1N [PD98059]
- inhibition of LGG-CM-induced Hsp72 expression: more modest effect
